The values that follow come from patent US20030078251A1, “Benzoxazepinones and their use as squalene synthase inhibitors” (priority 2000, published 2003).

Usually melting point stands for the temperature, or range, at which the solid turns liquid. As to `COc1cccc([C@H]2O[C@H](CC(=O)Nc3cccc(OC(F)(F)C(=O)O)c3)C(=O)N(CC(C)(C)CO)c3ccc(Cl)cc32)c1OC` [Example 133, 2-[3-[[[(3R,5S)-7-Chloro-5-(2,3-dimethoxyphenyl)-1-(3-hydroxy-2,2-dimethylpropyl)-2-oxo-1,2,3,5-tetrahydro-4,1-benzoxazepin-3-yl]acetyl]amino]phenyloxy]-2,2-difluoroacetic acid], the melting point lay in the range of 119 to 121 °C.
The figure for `COc1cccc([C@H]2O[C@H](CC(=O)Nc3ccc(F)c(CCC(=O)O)c3)C(=O)N(CC(C)(C)CO)c3ccc(Cl)cc32)c1OC` [Example 134, 3-[5-[[[(3R,5S)-7-Chloro-5-(2,3-dimethoxyphenyl)-1-(3-hydroxy-2,2-dimethylpropyl)-2-oxo-1,2,3,5-tetrahydro-4,1-benzoxazepin-3-yl]acetyl]amino]-2-fluorophenyl]propionic Acid] is 123 to 125 °C; for `COc1cccc([C@H]2O[C@H](CC(=O)Nc3cccc(CCCCC(=O)O)c3)C(=O)N(CC(C)(C)CO)c3ccc(Cl)cc32)c1OC` [Example 135, 5-[3-[[[(3R,5S)-7-Chloro-5-(2,3-dimethoxyphenyl)-1-(3-hydroxy-2,2-dimethylpropyl)-2-oxo-1,2,3,5-tetrahydro-4,1-benzoxazepin-3-yl]acetyl]amino]phenyl]pentanoic acid] it is 117 to 119 °C; for `COc1cccc([C@H]2O[C@H](CC(=O)Nc3ccc(OCC(=O)O)cc3F)C(=O)N(CC(C)(C)CO)c3ccc(Cl)cc32)c1OC` [Example 136] it is 192 to 193 °C (dec.).
In the case of `COc1ccc(C(C)(C)C(=O)O)cc1NC(=O)C[C@H]1O[C@H](c2cccc(OC)c2OC)c2cc(Cl)ccc2N(CC(C)(C)CO)C1=O` [Example 137, 2-[3-[[2-[(3R,5S)-7-Chloro-5-(2,3-dimethoxyphenyl)-1-(3-hydroxy-2,2-dimethylpropyl)-2-oxo-1,2,3,5-tetrahydro-4,1-benzoxazepin-3-yl]acetyl]amino]-4-methoxyphenyl]-2,2-dimethylacetic acid], the melting point was 225 to 226 °C (dec.).
Under `COc1ccc(C(C)(C)CCC(=O)O)cc1NC(=O)C[C@H]1O[C@H](c2cccc(OC)c2OC)c2cc(Cl)ccc2N(CC(C)(C)CO)C1=O` [Example 138, 4-[3-[[2-[(3R,5S)-7-Chloro-5-(2,3-dimethoxyphenyl)-1-(3-hydroxy-2,2-dimethylpropyl)-2-oxo-1,2,3,5-tetrahydro-4,1-benzoxazepin-3-yl]acetyl]amino]-4-methoxyphenyl]-4,4-dimethylbutanoic acid] stands 173 to 174 °C.
The figure for `COc1ccc(CCCCC(=O)O)cc1NC(=O)C[C@H]1O[C@H](c2cccc(OC)c2OC)c2cc(Cl)ccc2N(CC(C)(C)CO)C1=O` [Example 139, 5-[3-[[2-[(3R,5S)-7-Chloro-5-(2,3-dimethoxyphenyl)-1-(3-hydroxy-2,2-dimethylpropyl)-2-oxo-1,2,3,5-tetrahydro-4,1-benzoxazepin-3-yl]acetyl]amino]-4-methoxyphenyl]pentanoic acid] is 136 to 138 °C; for `COc1cccc([C@H]2O[C@H](CC(=O)Nc3cccc(C(=O)O)n3)C(=O)N(CC(C)(C)CO)c3ccc(Cl)cc32)c1OC` [Example 140, 6-[[[(3R,5S)-5-(2,3-Dimethoxyphenyl)-7-chloro-1-(3-hydroxy-2,2-dimethylpropyl)-2-oxo-1,2,3,5-tetrahydro-4,1-benzoxazepin-3-yl]acetyl]amino]-2-pyridinecarboxylic acid] it is 265 to 270 °C (dec.); for `COc1cccc([C@H]2O[C@H](CC(=O)Nc3ncc(C(=O)O)s3)C(=O)N(CC(C)(C)CO)c3ccc(Cl)cc32)c1OC` [Example 141, 2-[[[(3R,5S)-7-Chloro-5-(2,3-dimethoxyphenyl)-1-(3-hydroxy-2,2-dimethylpropyl)-2-oxo-1,2,3,5-tetrahydro-4,1-benzoxazepin-3-yl]acetyl]amino]-1,3-thiazole-5-carboxylic acid] it is 241 to 242.2 °C.
The figure for `COc1cccc([C@H]2O[C@H](CC(=O)Nc3nc(C(=O)O)cs3)C(=O)N(CC(C)(C)CO)c3ccc(Cl)cc32)c1OC` [Example 142, 2-[[[(3R,5S)-7-Chloro-5-(2,3-dimethoxyphenyl)-1-(3-hydroxy-2,2-dimethylpropyl)-2-oxo-1,2,3,5-tetrahydro-4,1-benzoxazepin-3-yl]acetyl]amino]-1,3-thiazole-4-carboxylic acid] is 277.3 to 277.9 °C.
In turn, `COc1cccc([C@H]2O[C@H](CC(=O)Nc3ncc(CC(=O)O)s3)C(=O)N(CC(C)(C)CO)c3ccc(Cl)cc32)c1OC` [Example 143, [2-[[[(3R,5S)-7-Chloro-5-(2,3-dimethoxyphenyl)-1-(3-hydroxy-2,2-dimethylpropyl)-2-oxo-1,2,3,5-tetrahydro-4,1-benzoxazepin-3-yl]acetyl]amino]-1,3-thiazol-5-yl]acetic acid] registered a melting point of 239 to 241 °C.
The figure for `COc1cccc([C@H]2O[C@H](CC(=O)Nc3ncc(CCC(=O)O)s3)C(=O)N(CC(C)(C)CO)c3ccc(Cl)cc32)c1OC` [Example 144, 3-[2-[[[(3R,5S)-7-Chloro-5-(2,3-dimethoxyphenyl)-1-(3-hydroxy-2,2-dimethylpropyl)-2-oxo-1,2,3,5-tetrahydro-4,1-benzoxazepin-3-yl]acetyl]amino]-1,3-thiazol-5-yl]propionic Acid] is 203 to 205 °C; for `COc1cccc([C@H]2O[C@H](CC(=O)Nc3nc(C)c(C(=O)O)s3)C(=O)N(CC(C)(C)CO)c3ccc(Cl)cc32)c1OC` [Example 145, 2-[[[(3R,5S)-7-Chloro-5-(2,3-dimethoxyphenyl)-1-(3-hydroxy-2,2-dimethylpropyl)-2-oxo-1,2,3,5-tetrahydro-4,1-benzoxazepin-3-yl]acetyl]amino]-4-methyl-1,3-thiazole-5-carboxylic acid] it is 251 to 252 °C.
Take `COc1cccc([C@H]2O[C@H](CC(=O)Nc3ccc4[nH]c(SCC(=O)O)nc4c3)C(=O)N(CC(C)(C)CO)c3ccc(Cl)cc32)c1OC` [Example 148, 2-[[5-[[[(3R,5S)-7-Chloro-5-(2,3-dimethoxyphenyl)-1-(3-hydroxy-2,2-dimethylpropyl)-2-oxo-1,2,3,5-tetrahydro-4,1-benzoxazepin-3-yl]acetyl]amino]-1H-benzimidazol-2-yl]sulfanyl]acetic acid]: the melting point lay within 187.9 to 188.9 °C.
As to `COc1cccc([C@H]2O[C@H](CC(=O)Nc3cc(OC)c4oc(C(=O)O)cc4c3)C(=O)N(CC(C)(C)CO)c3ccc(Cl)cc32)c1OC` [Example 149, 5-[[[(3R,5S)-5-(2,3-dimethoxyphenyl)-7-chloro-1-(3-hydroxy-2,2-dimethylpropyl)-2-oxo-1,2,3,5-tetrahydro-4,1-benzoxazepin-3-yl]acetyl]amino]-7-methoxy-1-benzofran-2-carboxylic acid], the melting point was 175.4 to 175.5 °C.
`CCOc1cc(NC(=O)C[C@H]2O[C@H](c3cccc(OC)c3OC)c3cc(Cl)ccc3N(CC(C)(C)CO)C2=O)cc2cc(C(=O)O)oc12` [Example 150, 5-[[[(3R,5S)-7-chloro-5-(2,3-dimethoxyphenyl)-1-(3-hydroxy-2,2-dimethylpropyl)-2-oxo-1,2,3,5-tetrahydro-4,1-benzoxazepin-3-yl]acetyl]amino]-7-ethoxy-1-benzofuran-2-carboxylic acid] yielded a melting point of 181 to 181.5 °C.
Under `COc1cccc([C@H]2O[C@H](CC(=O)Nc3cc(OC(C)C)c4oc(C(=O)O)cc4c3)C(=O)N(CC(C)(C)CO)c3ccc(Cl)cc32)c1OC` [Example 152, 5-[[[(3R,5S)-7-Chloro-5-(2,3-dimethoxyphenyl)-1-(3-hydroxy-2,2-dimethylpropyl)-2-oxo-1,2,3,5-tetrahydro-4,1-benzoxazepin-3-yl]acetyl]amino]-7-[(1-methylethyl)oxy]-1-benzofuran-2-carboxylic acid] stands 188.6 to 189.7 °C.
Compound `COc1cccc([C@H]2O[C@H](CC(=O)Nc3ccc4oc(C(=O)O)c(OC)c4c3)C(=O)N(CC(C)(C)CO)c3ccc(Cl)cc32)c1OC` [Example 153, 5-[[[(3R,5S)-7-chloro-5-(2,3-dimethoxyphenyl)-7-chloro-1-(3-hydroxy-2,2-dimethylpropyl)-2-oxo-1,2,3,5-tetrahydro-4,1-benzoxazepin-3-yl]acetyl]amino]-3-methoxy-1-benzofuran-2-carboxylic acid] yielded a melting point of 175.4 to 176.3 °C.
The figure for `COc1cccc([C@H]2O[C@H](CC(=O)Nc3ccc4oc(C(=O)O)c(OCC(=O)O)c4c3)C(=O)N(CC(C)(C)CO)c3ccc(Cl)cc32)c1OC` [Example 155, 5-[[[(3R,5S)-7-chloro-5-(2,3-dimethoxyphenyl)-1-(3-hydroxy-2,2-dimethylpropyl)-2-oxo-1,2,3,5-tetrahydro-4,1-benzoxazepin-3-yl]acetyl]amino]-3-[(carboxymethyl)oxy]-1-benzofuran-2-carboxylic acid] is 193 to 195.5 °C; for `COc1cccc([C@H]2O[C@H](CC(=O)Nc3ccc4oc(C(=O)O)c(OC(C)C)c4c3)C(=O)N(CC(C)(C)CO)c3ccc(Cl)cc32)c1OC` [Example 156, 5-[[[(3R,5S)-7-chloro-5-(2,3-dimethoxyphenyl)-1-(3-hydroxy-2,2-dimethylpropyl)-2-oxo-1,2,3,5-tetrahydro-4,1-benzoxazepin-3-yl]acetyl]amino]-3-[(1-methylethyl)oxy]-1-benzofuran-2-carboxylic acid] it is 174.2 to 174.9 °C; for `COc1cccc([C@H]2O[C@H](CC(=O)Nc3ccc4[nH]c(C(=O)O)cc4c3)C(=O)N(CC(C)(C)CO)c3ccc(Cl)cc32)c1OC` [Example 157] it is 200.5 to 200.6 °C.
`COc1cccc([C@H]2O[C@H](CC(=O)Nc3ccc4oc(CCC(=O)O)cc4c3)C(=O)N(CC(C)(C)CO)c3ccc(Cl)cc32)c1OC` [Example 159, 3-[5-[[[(3R,5S)-7-Chloro-5-(2,3-dimethoxyphenyl)-1-(3-hydroxy-2,2-dimethylpropyl)-2-oxo-1,2,3,5-tetrahydro-4,1-benzoxazepin-3-yl]acetyl]amino]-1-benzofuran-2-yl]propanoic acid] yielded a melting point of 207 to 209 °C.
